In patent US9980976B2, “Use of REDD1 inhibitors to dissociate therapeutic and adverse atrophogenic effects of glucocorticoid receptor agonists” (Northwestern University, priority 2015, dated 2018):

Legend:
[1] = test system: croton oil-induced ear edema; test: Croton oil-induced ear edema test; type: in vivo, mouse
FKBP51 and GILZ = test: Q-PCR analysis of GR target genes FKBP51 and GILZ in HaCaT and CEM cells; type: cell-based, human; conditions: FA 1 uM 24 h
Procedure: FIG. 13. Rapamycin inhibits GR transactivation. A, B. Q-PCR analysis of FKBP51 and GILZ expression in HaCaT (A) and CEM (B) cells. Cells were pretreated with solvent or Rapa (1 uM)×6 hrs and treated with solvent (Control) or FA (1 uM) for 24 h. A,B. Q-PCR results were normalized to the expression of the housekeeping Rp127 gene, and presented as fold of change compared to control cells. The means+/−SD calculated for three individual RNA samples/condition. a—Statistically significant difference (P<0.05) compared to control; b—Statistically significant differences (P<0.05) compared to FA treatment. C. Inhibitory effect of rapamycin on GRE.Luciferase reporter. […] The means+SD were calculated for three individual wells/group in one representative experiment (out of three experiments). a—Statistically significant differences (P<0.05) in comparison to vehicle treatment; b—Statistically significant differences (P<0.05) in comparison to FA treatment.
Total RNA from murine epidermis, whole human skin, and cell cultures was isolated with RiboPure kit (Ambion, Life Technologies, Grand Island, N.Y., USA). […] The gene expression was assessed using semi-quantitative two-step RT-PCR and quantitative Q-PCR. […] For semi-quantitative PCRs, Taq DNA polymerase (Promega) was used, and PCR products were separated on 1.5% agarose gel and visualized using automated imaging system (Bio-Rad, Hercules, Calif., USA). […]

pri-miR-221 = test: Q-PCR analysis of primary miR-221 in mouse epidermis; type: in vivo; conditions: 24 h after single FA application and after the first week of chronic treatment
Procedure: FIG. 9. Inverse correlation between pri-miR-221 and REDD1 expression during glucocorticoid treatment. B6D2 mice were treated with FA topically as described in Materials and Methods, epidermis was harvested at indicated time points. A. Western blot analysis. B. Q-PCR analysis of primary miR-221. Data are expressed as the fold change (mean±SD) with respect to the controls (unpaired two-tailed t-test, n=3).
Total RNA from murine epidermis, whole human skin, and cell cultures was isolated with RiboPure kit (Ambion, Life Technologies, Grand Island, N.Y., USA). Total RNA from murine s.c. adipose was isolated with RNeasy Lipid Tissue Kit (Qiagen, Valencia, Calif., USA). The RNA samples were treated with TURBOT™ DNase (Ambion). The gene expression was assessed using semi-quantitative two-step RT-PCR and quantitative Q-PCR. Reverse transcription was performed using 1 μg RNA, random hexamers, and M-MLV reverse transcriptase (Invitrogen, Life Technologies), according to manufacturer instructions. The gene-specific primers were designed with NCBI Primer-BLAST (data not shown, see Baida et al., EMBO, 2015, at Supplementary Table S4). […] For semi-quantitative PCRs, Taq DNA polymerase (Promega) was used, and PCR products were separated on 1.5% agarose gel and visualized using automated imaging system (Bio-Rad, Hercules, Calif., USA). […]

mTOR = mTOR activity in mouse skin (phosphorylation of 4E-BP1 and rpS6, phospho-mTOR Ser2448); type: in vivo; conditions: B6D2 mice, topical FA
Description: Because REDD1 is a known inhibitor of mTOR signaling (Sofer et al, 2005; Wang et al, 2006; DeYoung et al, 2008; Shimizu et al, 2011), we tested whether FA inhibits mTOR activity in the skin. In previous studies, mTOR activity has been monitored by phosphorylation of its major substrates, 4E-BP1 (eukaryotic initiation factor 4E binding protein 1) and S6K1 (ribosomal p70/S6 kinase 1) as well as ribosomal protein S6 (rpS6), a substrate of S6K1 (Checkley et al, 2011). As basal level of S6K1 phosphorylation was low in skin of B6D2 mice, we used 4E-BP1 and rpS6 as preferred markers. […] Moreover, there was an inverse correlation between phosphorylation of mTOR targets and REDD1 expression in the epidermis. By the time when REDD1 expression reached its peak (8 h after 1st and 2nd FA applications), the repression of mTOR activity by FA was most pronounced (FIGS. 2A, B). We further confirmed this inverse correlation using immunostaining for REDD1 and active, phosphorylated at Ser2448 mTOR (FIG. 2A). […]

CC1(C)O[C@@H]2C[C@H]3[C@@H]4C[C@H](F)C5=CC(=O)C=C[C@]5(C)[C@@]4(F)[C@@H](O)C[C@]3(C)[C@]2(C(=O)CO)O1 [FA, fluocinolone acetonide]
ear edema / ear weight ([1]; croton oil 20 ul/ear, FA 1 ug/ear 1 h before CO, weighed 9 h after CO): reduced edema decreasing the ear weight to control level
anti-inflammatory effect (ear morphology and ear punch weight) ([1]; wild-type and REDD1 KO mice, FA 2 μg 1 h before croton oil, 9 h after CO): relieved this inflammatory response with equal potency
FKBP51 and GILZ expression (FKBP51 and GILZ): strongly activated
pri-miR-221 level (pri-miR-221): significantly increased
mTOR activity in the skin (mTOR): blocked mTOR activity
